Measurements as given in US9645147B2, “Recombinant polypeptide construct comprising Plasmodium falciparum circumsporozoite protein HLA class I restricted T-cell epitopes” (priority 2013, dated 2017).
Entries after “also recorded” stand apart in the source; their conditions may differ. Peptide text beside a SMILES is read from it.

Assays:
Assay type in all cases: cell-based, human
[1] = tested on: PBMC depleted of T-cell subsets; test: ELISpot IFN-γ after T-cell subset depletion (CD4+ or CD8+ Dynabeads, mock control); details: for confirmation as recalling CD8+ T cell responses: ELISpot depletion and ICS studies; for CD4+ depl. sfc/m: after CD4+ T cell depletion; for CD4+ depl. (%) percent change in ELISpot activity: after CD4+ T cell depletion vs control depletion; for CD8+ depl. sfc/m: after CD8+ T cell depletion; for CD8+ depl. (%) percent change in ELISpot activity: after CD8+ T cell depletion vs control depletion; for Control dept. sfc/m: mock (control) depletion
Source text: For characterization of ELISpot IFN-γ-producing cells by T-cell subset depletions PBMC were depleted of T-cell subsets using anti-human CD4+ or anti-CD8+ coated Dynabeads M-450 (Dynal, Great Neck, N.Y.) following the manufacturer's instructions. Mock depletion was done with Dynabeads coated with sheep anti-mouse IgG. Flow cytometry confirmed that T-cell subset depletions were >99% in all experiments. Data are presented as the spot-forming cells/million (sfc/m) and percent decrease or increase in activity after depletion.
To further evaluate the predicted epitopes, ELISpot depletion assays were performed using PBMC from four volunteers stimulated with six predicted and tested epitopes. CD8+ T cell depletion reduced responses to Cp1 and Cp9 by 82%100%.

[2] = tested on: CD8+ T cells; test: Intracellular cytokine staining (ICS), IFN-γ, CD8+ population; details: for ICS CD8+ T cell recall responses (in words): ICS assays, volunteers of Table 6; for CD8+ % (per cent of CD8+ T cells expressing IFN-γ): ICS, positive >0.03%
Protocol: (§1) Intracellular cytokine staining (ICS) was performed as published previously (Stewart, et al, Infect. Immun., 75: 2283-90 (2007)). Cryopreserved PBMC were thawed, washed, and resuspended at 10×10^6 cells per mL in complete medium. Peptides were used at 10 μg/mL and costimulatory antibodies anti-CD28 and […] (BD Bioscience, San Jose, Calif.) were used at 1 μg/mL. Stimulants were added to cells and incubated at 37° C. with 5% CO2 for 2 hours. Cells were stained with anti-CD3, anti-CD4, anti-CD8, anti-IFN-γ, anti-TNFα, and anti-IL2 and the entire available sample was acquired on a BD LSRII using FACSDiVa (BD Bioscience) software. Data were analyzed using FlowJo Software (Treestar, Inc.). The gating strategy involved progressively measuring total cells; viable cells; lymphocytes; T cells; CD4+ or CD8+ populations; and finally a specific cell type expressing a specific cytokine. Results were transferred to Prism (GraphPad) for graphing and statistical analysis. Data for peptides were corrected for media responses. A positive response was greater than the medium controls+3 standard deviations (0.03%).

[3] = tested on: CD4+ T cells; test: Intracellular cytokine staining (ICS), IFN-γ, CD4+ population; details: for ICS CD4+ T cell recall responses (in words): ICS assays, volunteers of Table 6; for CD4+ % (per cent of CD4+ T cells expressing IFN-γ): ICS, positive >0.03%
Protocol: as §1

[4] = tested on: PBMC from volunteers immunized with Ad-CA or Ad-C; test: IFN-γ ELISpot assay with cryopreserved PBMC of immunized volunteers; details: for ELISpot response to synthesized epitope (in words): volunteers, positive = p<0.05, at least doubling and at least ten sfc over negative control; for Epitope sfc/m: Table 4; for 15 mer sfc/m: Table 2, individual 15mer at 10 μg/mL; for ELISpot response to individual 15mer peptide (in words): volunteers immunized with Ad-CA or Ad-C
Protocol: Previous studies have confirmed that recall-T cell responses, as assayed by ELISpot, are detected using cryopreserved PBMCs although such responses are generally of a lower magnitude than fresh cells (Sedegah, et al., Malar J., 9: 241 (2011)).
The positive control was commercially obtained Class I Peptide Pool Plus (Anaspec, USA). Negative control was media with all supplements but no antigen-specific stimulant.
Throughout the studies, IFN-γ ELISpot assays were conducted as previously described (Sedegah, et al., Malar J., 9: 241 (2011); Wang, et al., PNAS (USA), 98: 10817-22 (2001)). Cryopreserved PBMC were suspended in 100 μL complete medium and stimulated with CSP peptides in 100 μL of complete medium at a final concentration of 10 μg/mL of each peptide tested (Wang, et al., PNAS (USA), 98: 10817-22 (2001)).
Cultures were incubated for 36 hours at 37° C., 5% CO2. Depending on availability of cells, each PBMC sample was assayed in duplicate, triplicate, or quadruplicate and the number of IFN-γ-secreting spot forming cells (sfc) was counted using an automated ELISpot reader (AID, GmbH, Germany). In duplicate assays, all values were used in analysis. […] The mean number of sfcs obtained in negative control wells was subtracted from the value of each test well from the same sample. Negative counts generated by this background subtraction were converted to zero. The mean number of spots of the test sample was then calculated and expressed as spot forming cells/million (sfc/m). A positive response was defined as a significant difference (p=<0.05) between average of the number of spot forming cells (sfc) in test wells and the average of negative control wells (Student's two tailed t-test), and at least a doubling of sfc in test wells relative to negative control wells, and a difference of at least ten sfc between test and negative control wells (Sedegah, et al., PLoS One, 6: e24586 (2011)).

[5] = volunteer 69 (Ad-C), synthesized 8-10mer epitope
[6] = volunteer 127 (Ad-CA), synthesized 8-10mer epitope
[7] = volunteer 156 (Ad-CA), synthesized 8-10mer epitope
[8] = volunteer 58 (Ad-C), synthesized 8-10mer epitope

CC(C)C[C@H](NC(=O)[C@H](C)NC(=O)[C@H](CCC(=O)O)NC(=O)[C@@H](NC(=O)[C@H](Cc1ccccc1)NC(=O)[C@H](CC(C)C)NC(=O)[C@@H](N)Cc1ccccc1)C(C)C)C(=O)N[C@@H](Cc1ccccc1)C(=O)N[C@@H](CCC(N)=O)C(=O)O [Epitope E1a] (H-FLFVEALFQ-OH; N-terminus and C-terminus assumed)
confirmation as recalling CD8+ T cell responses [1]: confirmed as recalling CD8+ T cell responses
CD4+ depl. sfc/m ([1]; V156): 215 sfc/m
CD4+ depl. (%) percent change in ELISpot activity ([1]; V156): −12%
CD8+ depl. sfc/m ([1]; V156): 91 sfc/m
CD8+ depl. (%) percent change in ELISpot activity ([1]; V156): −73%
Control dept. sfc/m ([1]; V156): 245 sfc/m
ICS CD8+ T cell recall responses (in words) [2]: positive
CD8+ % (per cent of CD8+ T cells expressing IFN-γ) ([2]; V156): 0.34%
ICS CD4+ T cell recall responses (in words) [3]: negative
CD4+ % (per cent of CD4+ T cells expressing IFN-γ) ([3]; V156): 0.03%
ELISpot response to synthesized epitope (in words) [4]: demonstrated activity

CC(C)C[C@H](NC(=O)[C@H](C)NC(=O)[C@H](CCC(=O)O)NC(=O)[C@@H](NC(=O)[C@@H](N)Cc1ccccc1)C(C)C)C(=O)N[C@@H](Cc1ccccc1)C(=O)N[C@@H](CCC(N)=O)C(=O)N[C@@H](CCC(=O)O)C(=O)N[C@@H](Cc1ccc(O)cc1)C(=O)O [Epitope E2]
confirmation as recalling CD8+ T cell responses [1]: confirmed as recalling CD8+ T cell responses
CD4+ depl. sfc/m ([1]; V69): 254 sfc/m
CD4+ depl. (%) percent change in ELISpot activity ([1]; V69): −15%
CD8+ depl. sfc/m ([1]; V69): 8 sfc/m
CD8+ depl. (%) percent change in ELISpot activity ([1]; V69): −97%
Control dept. sfc/m ([1]; V69): 296 sfc/m
ICS CD8+ T cell recall responses (in words) [2]: positive
CD8+ % (per cent of CD8+ T cells expressing IFN-γ) ([2]; V69): 0.48%
ICS CD4+ T cell recall responses (in words) [3]: negative
CD4+ % (per cent of CD4+ T cells expressing IFN-γ) ([3]; V69): 0.00%
Epitope sfc/m [4, 5]: 268 sfc/m
Epitope sfc/m [4, 6]: 89 sfc/m
ELISpot response to synthesized epitope (in words) [4]: active; also recorded: demonstrated activity

CC(C)C[C@H](NC(=O)[C@H](C)NC(=O)[C@H](CCC(=O)O)NC(=O)[C@@H](NC(=O)[C@H](Cc1ccccc1)NC(=O)[C@@H](N)CC(C)C)C(C)C)C(=O)N[C@@H](Cc1ccccc1)C(=O)N[C@@H](CCC(N)=O)C(=O)N[C@@H](CCC(=O)O)C(=O)N[C@@H](Cc1ccc(O)cc1)C(=O)O [Epitope E3] (H-LFVEALFQEY-OH; N-terminus and C-terminus assumed)
Epitope sfc/m [4, 5]: 259 sfc/m
Epitope sfc/m [4, 6]: 99 sfc/m
ELISpot response to synthesized epitope (in words) [4]: active; also recorded: positive; also recorded: demonstrated activity

CC[C@H](C)[C@H](NC(=O)[C@@H](N)CC(C)C)C(=O)N[C@@H](CCSC)C(=O)N[C@H](C(=O)N[C@@H](CC(C)C)C(=O)N[C@@H](CO)C(=O)N[C@@H](Cc1ccccc1)C(=O)N[C@@H](CC(C)C)C(=O)N[C@@H](Cc1ccccc1)C(=O)N[C@@H](CC(C)C)C(=O)O)C(C)C [Epitope E17]
Epitope sfc/m [4, 7]: 156 sfc/m
ELISpot response to synthesized epitope (in words) [4]: positive

CC[C@H](C)[C@H](NC(=O)[C@H](C)N)C(=O)N[C@@H](CC(C)C)C(=O)N[C@@H](CO)C(=O)N[C@H](C(=O)N[C@@H](CO)C(=O)N[C@@H](CO)C(=O)N[C@@H](Cc1ccccc1)C(=O)N[C@@H](CC(C)C)C(=O)O)C(C)C [Epitope E18a]
ELISpot response to synthesized epitope (in words) [4]: demonstrated activity

AILSVSSFLF [Epitope E18]
Epitope sfc/m ([4]; volunteer 63 (Ad-C), synthesized 8-10mer epitope): 41 sfc/m
ELISpot response to synthesized epitope (in words) [4]: positive

DKHIKEYLNKIQNSL [Cp6-C47]
15 mer sfc/m ([4]; volunteer 61 (Ad-C)): 48 sfc/m

EALFQEYQCYGSSSN [Cp1-05, 15mer CSP peptide aa 17-31]
15 mer sfc/m ([4]; volunteer 58 (Ad-C)): 105 sfc/m

EKKICKMEKCSSVFN [Cp9-C60, 15mer CSP peptide aa 365-379]
15 mer sfc/m ([4]; volunteer 61 (Ad-C)): 39 sfc/m

ELNYDNAGTNLYNEL [Cp2-C10, 15mer CSP peptide aa 37-51]
15 mer sfc/m ([4]; volunteer 41 (Ad-C)): 35 sfc/m

FLFVEALFQE [Epitope E1]
Epitope sfc/m [4, 8]: 49 sfc/m
Epitope sfc/m [4, 7]: 105 sfc/m
ELISpot response to synthesized epitope (in words) [4]: active; also recorded: positive; also recorded: demonstrated activity

FLFVEALFQEYQCYG [Cp1-C4, 15mer CSP peptide aa 13-27]
15 mer sfc/m ([4]; volunteer 01 (Ad-CA)): 48 sfc/m
15 mer sfc/m ([4]; volunteer 05 (Ad-CA)): 44 sfc/m
15 mer sfc/m ([4]; volunteer 12 (Ad-CA)): 87 sfc/m
15 mer sfc/m ([4]; volunteer 69 (Ad-C)): 368 sfc/m
ELISpot response to individual 15mer peptide (in words) [4]: positive

IMVLSFLFL (listed as Plasmodium falciparum) [Epitope E21, CSP aa 388-396]
Epitope sfc/m ([4]; volunteer 125 (Ad-CA), synthesized 8-10mer epitope): 29 sfc/m
ELISpot response to synthesized epitope (in words) [4]: low to modest response; also recorded: demonstrated activity

KCSSVFNVVNSSIGL [Cp9-C62, 15mer CSP peptide aa 373-387]
15 mer sfc/m ([4]; volunteer 01 (Ad-CA)): 116 sfc/m

KEYLNKIQNSLSTEW [Cp6-C48]
15 mer sfc/m ([4]; volunteer 05 (Ad-CA)): 106 sfc/m
15 mer sfc/m ([4]; volunteer 41 (Ad-C)): 103 sfc/m
15 mer sfc/m ([4]; volunteer 58 (Ad-C)): 45 sfc/m
ELISpot response to individual 15mer peptide (in words) [4]: positive

NELEMNYYGKQENWY [Cp2-C13, 15mer CSP peptide aa 49-63]
15 mer sfc/m ([4]; volunteer 01 (Ad-CA)): 116 sfc/m
15 mer sfc/m ([4]; volunteer 12 (Ad-CA)): 334 sfc/m

QEYQCYGSSSNTRVL [Cp1-C6, 15mer CSP peptide aa 21-35]
15 mer sfc/m ([4]; volunteer 58 (Ad-C)): 83 sfc/m

SSIGLIMVLSFLFLN [Cp9-C65, 15mer CSP peptide aa 383-397]
15 mer sfc/m ([4]; volunteer 01 (Ad-CA)): 46 sfc/m
15 mer sfc/m ([4]; volunteer 02 (Ad-CA)): 44 sfc/m
15 mer sfc/m ([4]; volunteer 08 (Ad-CA)): 62 sfc/m

SVFNVVNSSI [Epitope E13]
Epitope sfc/m ([4]; volunteer 37 (Ad-C), synthesized epitope, single value or first of two assays): 28 sfc/m
Epitope sfc/m [4, 8]: 80 sfc/m
ELISpot response to synthesized epitope (in words) [4]: positive; also recorded: demonstrated activity

SVSSFLFVEALFQEY [Cp1-C3, 15mer CSP peptide aa 9-23]
15 mer sfc/m ([4]; volunteer 05 (Ad-CA)): 65 sfc/m
15 mer sfc/m ([4]; volunteer 58 (Ad-C)): 29 sfc/m
15 mer sfc/m ([4]; volunteer 69 (Ad-C)): 385 sfc/m
ELISpot response to individual 15mer peptide (in words) [4]: positive

TNLYNELEMNYYGKQ [Cp2-C12, 15mer CSP peptide aa 45-59]
15 mer sfc/m ([4]; volunteer 01 (Ad-CA)): 119 sfc/m
15 mer sfc/m ([4]; volunteer 12 (Ad-CA)): 411 sfc/m

VFNVVNSSIGLIMVL [Cp9-C63, 15mer CSP peptide aa 377-391]
15 mer sfc/m ([4]; volunteer 08 (Ad-CA)): 109 sfc/m
15 mer sfc/m ([4]; volunteer 61 (Ad-C)): 80 sfc/m
ELISpot response to individual 15mer peptide (in words) [4]: positive

VNSSIGLIMVLSFLF [Cp9-C64, 15mer CSP peptide aa 381-395]
15 mer sfc/m ([4]; volunteer 08 (Ad-CA)): 91 sfc/m
